Measurements taken from PMC3707396 (Bioorganic & medicinal chemistry letters, 2013).
pIC50: −log10 of the molar value.

Tests used:
PC-3 cells [1] = conditions: cited from earlier work
mice = test: In vivo tolerability study
[2] = Passive permeability, PAMPA Explorer Kit; format: in vitro ADME; conditions: for Log Peff: log of effective permeability, mean of n = 3; for Permeability bin (high, medium or low): ranges not printed (Ref 17)
Kinetic solubility = format: physicochemical; conditions: for Solubility bin (high, medium or low): kinetic solubility, ranges not printed (in reference)
PC-3 cells [3] = test: WST-1 cytotoxicity in transfected PC-3 cells; format: cell-based; conditions: Homo sapiens, PC-3, read-out: % inh WST-1 (100 μM)
SK-Mel-147 cells = test: WST-1 cytotoxicity in SK-Mel-147 cells; format: cell-based
MKL1 = conditions: preliminary studies; cited from earlier work
[4] = target: Rho-pathway selective serum response element-luciferase reporter (SRE.L); conditions: read-out: IC50 (SRE.L); cited from earlier work

| SMILES | Log Peff [2] [cm/s] | Permeability bin (high, medium or low) [2] | Solubility bin (high, medium or low) (Kinetic solubility) | inhibition at 100 µM (PC-3 cells [3]) [%] | further results |
| --- | --- | --- | --- | --- | --- |
| CC(ONC(=O)c1cc(C(F)(F)F)cc(C(F)(F)F)c1)C(=O)Nc1ccc(Cl)cc1 (stereo not drawn) [Compound 1, reference compound] |  |  |  |  | Inhibition of invasion of PC-3 prostate cancer cells (PC-3 cells [1]; Matrigel model of metastasis): inhibits invasion; In vivo tolerability (toxicity) (mice; repeated dosing at 7.5 mg/kg intraperitoneally (IP)): deaths observed |
| O=C(Nc1ccc(Cl)cc1)C1CCCN(C(=O)c2cc(C(F)(F)F)cc(C(F)(F)F)c2)C1 (stereo not drawn) [Compound 2, reference compound] | −10 ± 0.00 | LOW | LOW |  | Inhibition of invasion into Matrigel by cultured PC-3 cells (PC-3 cells [1]): can inhibit invasion; solubility (Kinetic solubility): < 10 µg/mL |
| O=C(Nc1ccc(Cl)cc1)C1CCCN(C(=O)c2cccc(-c3ccco3)c2)C1 (stereo not drawn) [Compound 8a] | −8.3 ± 2.3 | LOW | LOW | 0 | WST-1 cytotoxicity (SK-Mel-147 cells): no WST-1 cytotoxicity; Effect on MKL1 nuclear localization (MKL1): blocks MKL1 nuclear localization; Body weight over the course of the study (mice; 10, 20, 50 and 100 mg/kg/day IP, 5 days): Weight was maintained; Abnormality observed at dissection (mice; 10, 20, 50 and 100 mg/kg/day IP, 5 days, sacrifice on 8th day): slight increase in liver weight; Tolerability in mice (mice; 5 days, up to 100 mg/kg/day IP, normal mice): well tolerated |
| O=C(c1ccccc1)c1cccc(C(=O)N2CCCC(C(=O)Nc3ccc(Cl)cc3)C2)c1 (stereo not drawn) [Compound 8b] |  |  |  | 0 |  |
| CC(C)(C)CC(=O)Nc1cccc(C(=O)N2CCCC(C(=O)Nc3ccc(Cl)cc3)C2)c1 (stereo not drawn) [Compound 8e] |  |  |  | 0 |  |
| C=Cc1cccc(C(=O)N2CCCC(C(=O)Nc3ccc(Cl)cc3)C2)c1 (stereo not drawn) [Compound 8f] |  |  |  | 0 |  |
| Cc1cccc(C(=O)N2CCCC(C(=O)Nc3ccc(Cl)cc3)C2)c1 (stereo not drawn) [Compound 8h] |  |  |  | 0 |  |
| CSc1cccc(C(=O)N2CCCC(C(=O)Nc3ccc(Cl)cc3)C2)c1 (stereo not drawn) [Compound 8i] |  |  |  | 0 |  |
| O=C(Nc1ccc(Cl)cc1)C1CCCN(C(=O)c2cccc(-c3cnco3)c2)C1 (stereo not drawn) [Compound 8j] |  |  |  | 0 |  |
| CCN(CC)S(=O)(=O)c1cccc(C(=O)N2CCCC(C(=O)Nc3ccc(Cl)cc3)C2)c1 (stereo not drawn) [Compound 8k] |  |  |  | 0 |  |
| COC(=O)c1cccc(C(=O)N2CCCC(C(=O)Nc3ccc(Cl)cc3)C2)c1 (stereo not drawn) [Compound 8l] |  |  |  | 0 |  |
| Cc1nc(-c2cccc(C(=O)N3CCCC(C(=O)Nc4ccc(Cl)cc4)C3)c2)no1 (stereo not drawn) [Compound 8m] |  |  |  | 0 |  |
| COc1cccc(C(=O)N2CCCC(C(=O)Nc3ccc(Cl)cc3)C2)c1 (stereo not drawn) [Compound 8n] |  |  |  | 0 |  |
| COCc1cccc(C(=O)N2CCCC(C(=O)Nc3ccc(Cl)cc3)C2)c1 (stereo not drawn) [Compound 8o] |  |  |  | 0 |  |
| N#Cc1cccc(C(=O)N2CCCC(C(=O)Nc3ccc(Cl)cc3)C2)c1 (stereo not drawn) [Compound 8q] |  |  |  | 0 |  |
| O=C(Nc1ccc(Cl)cc1)C1CCCN(C(=O)c2cccc([N+](=O)[O-])c2)C1 (stereo not drawn) [Compound 8s] |  |  |  | 0 |  |
| O=C(Nc1ccc(Cl)cc1)C1CCCN(C(=O)c2cccc(-c3cccs3)c2)C1 (stereo not drawn) [Compound 8u] | −10 ± 0.00 | LOW | LOW |  |  |
| O=C(Nc1cccc(Oc2ccccc2)c1)C1CCCN(C(=O)c2cc(C(F)(F)F)cc(C(F)(F)F)c2)C1 (stereo not drawn) [Compound 12a] | −5.1 ± 0.40 | MOD-LOW | LOW |  |  |
| O=C(Nc1cccc(Cc2ccccc2)c1)C1CCCN(C(=O)c2cc(C(F)(F)F)cc(C(F)(F)F)c2)C1 (stereo not drawn) [Compound 12b] | −4.7 ± 0.05 | MOD | LOW |  |  |
| O=C(CCNC(=O)c1cc(C(F)(F)F)cc(C(F)(F)F)c1)Nc1ccc(Cl)cc1 [Compound 19, reference compound] | −10 ± 0.00 | LOW | LOW |  | pIC50 [4]: 4.42 |
